Laboratory results from paper PMC11099021, “Mycobacterial biotin synthases require an auxiliary protein to convert dethiobiotin into biotin” (Nature Communications, 2024).

Key:
BioB.ec = biological target: T1, BioB.ec (Escherichia coli, UniProt P12996); test: biotin formation by LC-MS; assay type: biochemical; conditions: 100 µM DTB, 100 µM SAM; FldA/FNR/NADPH, MtnN; pH 8.0; 37 °C; anaerobic; without BsaP
T1 sequence (P12996 1-346): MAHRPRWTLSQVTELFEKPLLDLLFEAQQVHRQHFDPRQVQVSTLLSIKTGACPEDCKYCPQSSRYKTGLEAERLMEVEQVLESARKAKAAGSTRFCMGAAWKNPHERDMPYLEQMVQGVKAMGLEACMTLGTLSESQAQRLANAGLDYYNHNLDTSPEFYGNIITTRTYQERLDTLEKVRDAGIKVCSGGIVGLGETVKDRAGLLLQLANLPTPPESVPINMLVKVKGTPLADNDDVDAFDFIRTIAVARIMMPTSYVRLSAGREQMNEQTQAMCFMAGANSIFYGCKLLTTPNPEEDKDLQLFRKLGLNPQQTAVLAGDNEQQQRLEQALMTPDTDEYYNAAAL

BioB.tb-BsaP = BioB.tb-BsaP (Mycobacterium tuberculosis, UniProt P9WPQ7); test: biotin formation by LC-MS, Morrison fit; assay type: biochemical
Description: biotin formation by LC-MS, Morrison fit on BioB.tb-BsaP | acidomycin is indeed a potent inhibitor of BioB.tb displaying an inhibition constant Ki of […]

BsaP = biological target: T2, BsaP (Mycobacterium tuberculosis, UniProt P9WLT6)
T2 chain: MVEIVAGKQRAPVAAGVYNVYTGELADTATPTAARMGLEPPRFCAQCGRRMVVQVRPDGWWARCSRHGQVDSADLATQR

Q: For `C[C@@H]1NC(=O)N[C@@H]1CCCCCC(=O)O` [DTB], which “biotin formation by LC-MS” value (BioB.ec) is on record?
A: Its value is “No difference in biotin production was observed when BsaP was added to BioB.ec”.

Q: For `O=C(O)CCCCC[C@@H]1NC(=O)CS1` [acidomycin], which Ki (BioB.tb-BsaP) is on record?
A: The Ki was 110 nM.

B1: BioB (protein)
chain: TQAATRPTNDAGQDGGNNSDILVVARQQVLQRGEGLNQDQVLAVLQLPDDRLEELLALAHEVRMRWCGPEVEVEGIISLKTGGCPEDCHFCSQSGLFASPVRSAWLDIPSLVEAAKQTAKSGATEFCIVAAVRGPDERLMAQVAAGIEAIRNEVEINIACSLGMLTAEQVDQLAARGVHRYNHNLETARSFFANVVTTHTWEERWQTLSMVRDAGMEVCCGGILGMGETLQQRAEFAAELAELGPDEVPLNFLNPRPGTPFADLEVMPVGDALKAVAAFRLALPRTMLRFAGGREITLGDLGAKRGILGGINAVIVGNYLTTLGRPAEADLELLDELQMPLKALNASL
Q: With B1 as the molecule, how does the Kd (BsaP) read?
A: Its Kd is 950 nM.
